Results from patent publication US20260000698A1 (priority 2022, published 2026).

Assays:
A549/ACE2/TMPRSS2 cells = assay: in vitro; conditions: for CC50: NT (nontoxic): cell viability at 50 μM; for CC50: A549/ACE2/TMPRSS2 cells; for cytotoxicity: human, 100 μM
Description: Percentage of infected cells was determined by dividing the number of infected cells by the total number of cells per well. The percentage of infected cells and total number of cells for each treatment was plotted into GraphPad prism (GraphPad Software; San Diego, CA, USA) to perform a non-linear regression analysis, generate infectious dose-response curves and to calculate EC50 and CC50 values.
Viability assays for the non-infected A549/ACE2/TMPRSS2 cells were performed using the 3-(4,5-dimethylthiazol-2-yl)-5-(3-carboxymethoxyphenyl)-2-(4-sulfophenyl)-2H-tetrazolium (MTS)-based tetrazolium reduction CellTiter 96 Aqueous Non-Radioactive cell proliferation assay (Promega G5430; Madison, WI) as described. Assays were conducted using parallel plates to those used in the immunofluorescence assay. Experimental details (cell line, number of cells seeded and incubation time) corresponded to those used in the immunofluorescence assay above. The data obtained were used to calculate the CC50 value using GraphPad Prism software.

[1] = system: SARS-CoV-2 isolate USA-WA1/2020; conditions: inhibition at 50 μM
SARS-CoV-2 Nsp14 MTase [2] = target: T1, SARS-CoV-2 Nsp14 MTase (Severe acute respiratory syndrome coronavirus 2, UniProt P0DTD1); assay: Nsp14 MTase assay detected with MTase-Glo methyltransferase assay kit; assay type: biochemical; conditions: for IC50: methylation reaction detected by MTase-Glo kit; for inhibition at 10 µM: read-out: MTase % inhibition at 10 μM
Description: Detection using MTase-Glo™ methyltransferase assay kits. The assay was run according to Promega MTase-Glo™ kit (V7601) instructions. […]. GpppA was purchased by New England Biolabs and used at a final concentration of 3 uM/reaction. […] […] Compounds, Nsp14, GpppA at MTase-Glo™ reagent were pre-incubated for 15 min at room temperature. The assay was started with addition of SAM at final concentration of 1 uM/reaction (negative control had no SAM). The assay plate was mixed well with a plate shaker after each addition. The reaction was incubated for 15 min at 30° C. MTase-Glo™ detection solution was added, and the plate was incubated 60 min at room temperature. Luminescence was read on an M5e spectrophotometer.

SARS-CoV-2 Nsp14 MTase [3] = target: T1, SARS-CoV-2 Nsp14 MTase; assay: biochemical; assay type: biochemical
[4] = system: SARS-CoV-2 isolate USA-WA1/2020; assay: microbe, parasite or virus in culture; conditions: Severe acute respiratory syndrome coronavirus 2, A549-ACE2, 48 h
[5] = LC-MS/MS detection of SAH, read-out: MTase IC50

Q: What does the source list for `Nc1ncnc2c1ncn2[C@@H]1O[C@H](C[C@@H](N)CC[C@H](N)C(=O)O)[C@@H](O)[C@H]1O` [sinefungin, reference compound]?
A: CC50: NT (nontoxic) (A549/ACE2/TMPRSS2 cells): NT^b (NT, nontoxic, >95% cell viability at 50 μM;); EC50: NA (not active) [1]: NA^a (NA, not active, <15% inhibition at 50 μM.)

Q: Which IC50 (SARS-CoV-2 Nsp14 MTase [2]) does the source give for `CCN(C[C@H]1O[C@@H](c2ccc3c(N)ncnn23)[C@H](O)[C@@H]1O)S(=O)(=O)c1ccc2ccccc2c1` [Compound 53, N-(((2R,3S,4R,5S)-5-(4-Aminopyrrolo[2,1-f][1,2,4]triazin-7-yl)-3,4-dihydroxytetrahydrofuran-2-yl)methyl)-N-ethylnaphthalene-2-sulfonamide] here?
A: The IC50 was 156 nM.

Q: How did the IC50 (SARS-CoV-2 Nsp14 MTase [3]; [5]) turn out when `Nc1ncnc2c1ncn2[C@@H]1O[C@H](CNCc2ccc3ccccc3c2)[C@@H](O)[C@H]1O` [Compound 1, (2R,3R,4S,5R)-2-(6-Amino-9H-purin-9-yl)-5-(((naphthalen-2-ylmethyl)amino)methyl)tetrahydrofuran-3,4-diol] was run?
A: Its IC50 is 9600 nM.

Q: What about the “CC50: NT (nontoxic)” value (A549/ACE2/TMPRSS2 cells) of the same compound?
A: Its value is “NT^b (NT, nontoxic, >95% cell viability at 50 μM;)”.

Q: And the “EC50: NA (not active)” value [1]?
A: The value was “NA^a (NA, not active, <15% inhibition at 50 μM.)”.

Q: `CC(=O)O[C@@H]1[C@H](OC(C)=O)[C@@H](CNS(=O)(=O)c2ccc3ccccc3c2)O[C@H]1n1cnc2c(N)ncnc21` [Compound 8, (2R,3R,4R,5R)-2-(6-Amino-9H-purin-9-yl)-5-((naphthalene-2-sulfonamido)methyl)tetrahydrofuran-3,4-diyl diacetate] was tested. Which EC50 [4] did it give?
A: Its EC50 is 53000 nM.

Q: What about the CC50 (A549/ACE2/TMPRSS2 cells) of the same compound?
A: The CC50 was over 100000 nM.

Q: And the “cytotoxicity” value (A549/ACE2/TMPRSS2 cells)?
A: The value was “minimal cytotoxicity at 100 μM”.

Q: Which results are given for `Nc1ncnc2c1ncn2[C@@H]1O[C@H](CNS(=O)(=O)c2ccc3cccnc3c2)[C@@H](O)[C@H]1O` [Compound 4, N-(((2R,3S,4R,5R)-5-(6-Amino-9H-purin-9-yl)-3,4-dihydroxytetrahydrofuran-2-yl)methyl)quinoline-7-sulfonamide]?
A: MTase inhibitory activity (SARS-CoV-2 Nsp14 MTase [3]): comparable to that of compound 1; IC50 (SARS-CoV-2 Nsp14 MTase [3]; [5]): 69 nM; CC50: NT (nontoxic) (A549/ACE2/TMPRSS2 cells): NT^b (NT, nontoxic, >95% cell viability at 50 μM;); EC50: NA (not active) [1]: NA^a (NA, not active, <15% inhibition at 50 μM.)

Q: Which inhibition at 10 µM (SARS-CoV-2 Nsp14 MTase [2]) does the source give for `COc1ccc(S(=O)(=O)NC[C@H]2O[C@@H](c3ccc4c(N)ncnn34)[C@H](O)[C@@H]2O)cc1C#N` [Compound 41, N-(((2R,3S,4R,5S)-5-(4-aminopyrrolo[2,1-f][1,2,4]triazin-7-yl)-3,4-dihydroxytetrahydrofuran-2-yl)methyl)-3-cyano-4-methoxybenzenesulfonamide] here?
A: The inhibition at 10 µM was 94%.

Q: Which inhibition at 10 µM (SARS-CoV-2 Nsp14 MTase [2]) does the source give for `Nc1ncnn2c([C@@H]3O[C@H](CNS(=O)(=O)c4cccc(-c5ccccc5)c4)[C@@H](O)[C@H]3O)ccc12` [Compound 45, N-(((2R,3S,4R,5S)-5-(4-Aminopyrrolo[2,1-f][1,2,4]triazin-7-yl)-3,4-dihydroxytetrahydrofuran-2-yl)methyl)-[1,1′-biphenyl]-3-sulfonamide] here?
A: The inhibition at 10 µM was 85%.

Q: `Nc1ncnc2c1ncn2[C@@H]1O[C@H](CNC(=O)c2ccc3ccccc3c2)[C@@H](O)[C@H]1O` [Compound 2, N-(((2R,3S,4R,5R)-5-(6-Amino-9H-purin-9-yl)-3,4-dihydroxytetrahydrofuran-2-yl)methyl)-2-naphthamide] was tested. Which IC50 (SARS-CoV-2 Nsp14 MTase [3]; [5]) did it give?
A: The IC50 was 2700 nM.

Q: What about the “CC50: NT (nontoxic)” value (A549/ACE2/TMPRSS2 cells) of the same compound?
A: Its value is “NT^b (NT, nontoxic, >95% cell viability at 50 μM;)”.

Q: And the “EC50: NA (not active)” value [1]?
A: The value was “NA^a (NA, not active, <15% inhibition at 50 μM.)”.

Q: `Nc1ncnn2c([C@@H]3O[C@H](CNS(=O)(=O)c4ccc5ccccc5c4)[C@@H](O)[C@H]3O)cc(F)c12` [Compound 51, N-(((2R,3S,4R,5S)-5-(4-Amino-5-fluoropyrrolo[2,1-f][1,2,4]triazin-7-yl)-3,4-dihydroxytetrahydrofuran-2-yl)methyl)naphthalene-2-sulfonamide] was tested. Which IC50 (SARS-CoV-2 Nsp14 MTase [2]) did it give?
A: The IC50 was 32 nM.

Q: For `COc1ccc(S(=O)(=O)NC[C@H]2O[C@@H](c3ccc4c(N)ncnn34)[C@H](O)[C@@H]2O)cc1[N+](=O)[O-]` [Compound 43, N-(((2R,3S,4R,5S)-5-(4-aminopyrrolo[2,1-f][1,2,4]triazin-7-yl)-3,4-dihydroxytetrahydrofuran-2-yl)methyl)-4-methoxy-3-nitrobenzenesulfonamide], which inhibition at 10 µM (SARS-CoV-2 Nsp14 MTase [2]) is on record?
A: Its inhibition at 10 µM is 79%.

Q: For `Nc1ncnn2c([C@@H]3O[C@H](CNS(=O)(=O)c4ccc5c(Cl)cccc5c4)[C@@H](O)[C@H]3O)ccc12` [Compound 39, N-(((2R,3S,4R,5S)-5-(4-aminopyrrolo[2,1-f][1,2,4]triazin-7-yl)-3,4-dihydroxytetrahydrofuran-2-yl)methyl)-5-chloronaphthalene-2-sulfonamide], which IC50 (SARS-CoV-2 Nsp14 MTase [2]) is on record?
A: Its IC50 is 49 nM.

Q: `COc1ccc(S(=O)(=O)NC[C@H]2O[C@@H](n3ccc4c(N)ncnc43)[C@H](O)[C@@H]2O)cc1C#N` [Compound C11, N-(((2R,3S,4R,5R)-5-(4-Amino-7H-pyrrolo[2,3-d]pyrimidin-7-yl)-3,4-dihydroxytetrahydrofuran-2-yl)methyl)-3-cyano-4-methoxybenzenesulfonamide] was tested. Which inhibition at 10 µM (SARS-CoV-2 Nsp14 MTase [2]) did it give?
A: Its inhibition at 10 µM is 98%.

Q: `CCC(CC)COC(=O)[C@H](C)N[P@](=O)(OC[C@H]1O[C@@](C#N)(c2ccc3c(N)ncnn23)[C@H](O)[C@@H]1O)Oc1ccccc1` [remdesivir, reference compound] was tested. Which EC50 [4] did it give?
A: Its EC50 is 93 nM.

Q: And the CC50 (A549/ACE2/TMPRSS2 cells)?
A: The CC50 was 43000 nM.

Q: `CC(=O)Nc1ncnc2c1ncn2[C@@H]1O[C@H](CNS(=O)(=O)c2ccc3ccccc3c2)[C@@H](O)[C@H]1O` [Compound 6, N-(9-((2R,3R,4S,5R)-3,4-Dihydroxy-5-((naphthalene-2-sulfonamido)methyl)tetrahydrofuran-2-yl)-9H-purin-6-yl)acetamide] was tested. Which IC50 (SARS-CoV-2 Nsp14 MTase [3]; LC-MS/MS assay, read-out: IC50) did it give?
A: The IC50 was 48 nM.

Q: What about the CC50 (A549/ACE2/TMPRSS2 cells) of the same compound?
A: Its CC50 is over 100000 nM.

Q: And the “EC50: NA (not active)” value [1]?
A: Its value is “NA^a (NA, not active, <15% inhibition at 50 μM.)”.

Q: How did the inhibition at 10 µM (SARS-CoV-2 Nsp14 MTase [2]) turn out when `Nc1ncnn2c([C@@H]3O[C@H](CNS(=O)(=O)c4ccc(-c5ccccc5)cc4)[C@@H](O)[C@H]3O)ccc12` [Compound 47, N-(((2R,3S,4R,5S)-5-(4-Aminopyrrolo[2,1-f][1,2,4]triazin-7-yl)-3,4-dihydroxytetrahydrofuran-2-yl)methyl)-[1,1′-biphenyl]-4-sulfonamide] was run?
A: Its inhibition at 10 µM is 85%.

Q: With `Nc1ncnc2c([C@@H]3O[C@H](CNS(=O)(=O)c4ccc5ccccc5c4)[C@@H](O)[C@H]3O)csc12` [Compound B12, N-(((2R,3S,4R,5S)-5-(4-Aminothieno[3,2-d]pyrimidin-7-yl)-3,4-dihydroxytetrahydrofuran-2-yl)methyl)naphthalene-2-sulfonamide] as the compound, how does the inhibition at 10 µM (SARS-CoV-2 Nsp14 MTase [2]) read?
A: Its inhibition at 10 µM is 91%.

Q: `Nc1ncnc2c1ccn2[C@@H]1O[C@H](CNS(=O)(=O)c2ccc3ccccc3c2)[C@@H](O)[C@H]1O` [Compound C9, N-(((2R,3S,4R,5R)-5-(4-Amino-7H-pyrrolo[2,3-d]pyrimidin-7-yl)-3,4-dihydroxytetrahydrofuran-2-yl)methyl)naphthalene-2-sulfonamide] was tested. Which IC50 (SARS-CoV-2 Nsp14 MTase [2]) did it give?
A: Its IC50 is 19 nM.

Q: With `CCN(C[C@H]1O[C@@H](n2ccc3c(N)ncnc32)[C@H](O)[C@@H]1O)S(=O)(=O)c1ccc(OC)c(C#N)c1` [Compound C13, N-(((2R,3S,4R,5R)-5-(4-Amino-7H-pyrrolo[2,3-d]pyrimidin-7-yl)-3,4-dihydroxytetrahydrofuran-2-yl)methyl)-3-cyano-N-ethyl-4-methoxybenzenesulfonamide] as the compound, how does the inhibition at 10 µM (SARS-CoV-2 Nsp14 MTase [2]) read?
A: Its inhibition at 10 µM is 100%.

Q: With `CC(=O)Nc1ncnc2c1ncn2[C@@H]1O[C@H](CNS(=O)(=O)c2ccc3ccccc3c2)[C@@H](OC(C)=O)[C@H]1OC(C)=O` [Compound 9, (2R,3R,4R,5R)-2-(6-Acetamido-9H-purin-9-yl)-5-((naphthalene-2-sulfonamido)methyl)tetrahydrofuran-3,4-diyl diacetate] as the compound, how does the EC50 [4] read?
A: Its EC50 is 61000 nM.

Q: And the CC50 (A549/ACE2/TMPRSS2 cells)?
A: Its CC50 is over 100000 nM.

Q: And the “cytotoxicity” value (A549/ACE2/TMPRSS2 cells)?
A: The value was “minimal cytotoxicity at 100 μM”.
